“Also recorded” adds a separate entry of the source. Read-outs that look alike come from different tables or passages of the source.
How the values were obtained:
[1] = tested on: nonsense mediated RNA decay; assay: β-galactosidase reporter based NMD assay (gal-luc ratio) with PTC bearing double intron splicing unit; assay type: cell-based; conditions: reporter with c.2386delG or c.2292insA PTC, after treatment with translation/NMD inhibitor
From the text: (A) The test system for determining nonsense mediated RNA decay in mammalian cells based on the reporter gene encoding β-galactosidase, which was fused in-frame with the PTC (c.2386delG, c.2292insA) bearing recombinant double intron splicing unit (FIG. 4A). Plasmids bearing c.2292insA (pTN147) and c.2386delG (pTN148) mutations were transfected into HE 293 cells and grown in the presence or absence of NMD inhibitors including puromycin and cycloheximide. The treatments increased the gal-luc ratio of the reporter constructs between 5 and 20 fold (FIG. 4B) compared with untreated control. Compared with cells transfected with the reporter alone, the gal-luc ratio increased between 3 and 6 fold when hUpf1 RNA was knock down by RNAi (FIG. 4C).
Constructs for determining NMD were generated by fusing the double-intron splicing unit of pTN155 at the end of β-galactosidase reporter gene. The double-intron splicing intron was cloned in two steps into pBPLUGA (16). First the splicing unit of HC9 as described above was PCR amplified and cloned into KpnI and BamHI sites of pBPLUGA. The splicing unit of pTN136 was then cloned into SalI/XhoI and BamHI sites of the newly constructed plasmid and designated as pTN148. […]
Gene Transfer, cell culture, enzymatic assay, fluorescence microscopy and fluorescence activated cell sorting (FACS) were carried as described elsewhere (11), (15), (17). […]

[2] = tested on: translation readthrough of PTC in exon 12 of BMPR2; assay type: cell-based; conditions: for population of dual-fluorescence cells (FACS): 293 cells transfected with pTN142; for ratio of DsRed-Express and GFP production (efficiency of readthrough), plate readers: fluorescence monochrome and filter plate readers, data not shown
From the text: (§1) (A) An outline of the single cell-based translation readthrough assay. The principle of the reporter system is similar to that mentioned in FIG. 2 with the exception that it contains a translation termination signal in the exon 12. In the event of translation termination at the internal PTC, a DsRed-Express protein will be generated whilst readthrough will produce a fusion dual-fluorescence protein (DsRed Express and GFP). Thus the ratio of two fluorescence intensities determines the efficiency of readthrough. […] (C) Cell expressing fluorescence proteins were analyzed with FACS. Cell transfected with pTN139 generated the highest population of dual-fluorescence cells (FIG. 5Civ), whilst pTN142 produced no or few dual-fluorescence cells. […] GFP (FIG. 5Cii) and DsRed-Express (FIG. 5Ciii) proteins expressing cells were used as fluorescence positive control, whilst untransfected cells (FIG. 5Ci) were used as negative control. (FIG. 5D) The outline of the enzymatic reporter was published elsewhere (Kollmus et al., 1996, Nasim et al., 2000). In brief, translation termination in the internal stop signal generates β-gal protein. In the event of readthrough, a β-gal-luciferase fusion protein will be produced. The ratio of these two proteins was used as the efficiency of readthrough event. For this purpose, two independent constructs were used in our experiment. Construct H8 (pBPLUGA; Kollmus et al., 1996) contains a 17 bp DNA fragment containing an in-frame stop signal. H8A construct (Nasim et al., 2000) is similar to H8 with the exception that it contains a 91 bp DNA fragment.
Single-cell based dual-fluorescence splicing assay constructs were generated by replacing exon 9 of plasmid pTN136 with exon 12 of BMPR2 gene using PCR mutagenesis (14). The resultant splicing unit was cloned into Xho I and Bam HI sites of DsRed Express-GFP vector (Siskoglu and Nasim, unpublished data) and designated as pTN139. Further plasmids pTN140, pTN141, pTN142 and pTN143 bearing mutations in exon 12 at position c.2292insA, c.2386delG, c.2620G>T and c.2695C>T, respectively were generated. A double intron splicing unit was constructed by fusing an additional splicing unit of HC9 (15) at the 3′end of the Ad-Exon 12 unit of pTN136. The splicing unit of HC9 comprises the last 17 nucleotides of the non-muscle exon (NM) of human TPM3 gene together with the following 80-nucleotide intron, which was joined to a fragment of human dystrophin gene containing the last 260 nucleotides of intron 11 followed by the 100 nucleotides of exon 12. The double-intron splicing unit was cloned into EcoRI and KpnI sites of DsRed-Express-GFP vector and designated as pTN153. Plasmid pTN155 is a derivative of pTN153 and harbours a mutation in exon 12 at position c.2386delG.
Gene Transfer, cell culture, enzymatic assay, fluorescence microscopy and fluorescence activated cell sorting (FACS) were carried as described elsewhere (11), (15), (17). Amount of plasmid DNA transfected into HEK293 cell line varied from (from 30 ng to 1 μg) assay to assay.
In addition to PAH, there are also more than 1800 genetic disorders caused by nonsense mutation. Two approaches are currently available to overcome nonsense-associated genetic diseases. […] The aim of other approach is to suppress pre-mature termination; in other words to promote translation readthrough. As the dual-fluorescence assay was successfully utilized to characterize the PTC, we next wished to investigate whether the system can be used to identify factors that promote translation readthrough. To achieve this, we introduced a nonsense mutation into the exon 12 of the BMPR2 gene in such a way that it incorporates a PTC (FIG. 5A). In the event of readthrough, a fusion dual-fluorescence protein (DsRed Express and GFP) will be produced, whilst translation termination generates only DsRed-Express protein. Thus the ratio of two fluorescence intensities determines the efficiency of readthrough. […]

[3] = tested on: translation readthrough of in-frame stop signal; assay: enzyme-based dual-reporter (β-gal-luciferase) readthrough assay, constructs H8 and H8A; assay type: cell-based
From the text: as §1, with “(FIG. 5D) The outline of the enzymatic reporter was published elsewhere (Kollmus et al., 1996, Nasim et al., 2000). In brief, translation termination in the internal stop signal generates β-gal protein.” left out, “For this purpose, two independent constructs were used in our experiment. Construct H8 (pBPLUGA; Kollmus et al., 1996) contains a 17 bp DNA fragment containing an in-frame stop signal. H8A construct (Nasim et al., 2000) is similar to H8 with the exception that it contains a 91 bp DNA fragment.” left out
To further validate the efficiency determined by fluorescence assays, we employed an enzyme-based reporter assay. […] In the event of translation termination, β-gal protein is generated, whilst readthrough produces a β-gal and luciferase fusion protein. […]

[4] = tested on: nonsense codon read-through; conditions: literature values; cited from earlier work
[5] = tested on: translation readthrough of in-frame PTC; assay: swapped GFP-DsRedExpress dual-fluorescence readthrough assay, plate reader; assay type: cell-based; conditions: HEK293 cells, medium with 0.1% fetal bovine serum, 3-5 days, BMG Labtech plate reader
From the text: An outline of the dual-fluorescence reporter. The underlying principle of the reporter is similar to that mentioned above with the exception that the DsRed-express gene is located downstream of the GFP reporter (FIG. 7A). Following transfection the reporter harbouring an in-frame PTC produced only GFP protein (FIG. 7B). The reporter produced both GFP and DsRedExpress proteins following the exchange of the PTC to a sense codon.
A step-by-step outline of the translation readthrough assay (FIG. 8A).
A potential complication of the fluorescence approach was that of an autofluorescence which might interfere with the GFP fluorescence. To address this potential limitation, another set of vector was constructed. In this set of vectors the GFP and DsRed-Express reporters were swapped in such that the GFP is expressed regardless of translation readthrough, whilst the readthrough activates the expression of DsRed-Express protein (FIG. 7A). […] The reporter produced both GFP and DsRed-Express dual-fluorescences once the PTC codon was changed to a sense codon.
We next wished to determine the ratio of DsRed-Express and GFP production, which represents the efficiency of readthrough (FIG. 8A). […] The growth medium was discarded, cells were washed with PBS and the fluorescence intensities were determined using a fluorescence (BMG Labtech) plate reader.

Molecule | increase in the reporter protein [1] [fold] | population of dual-fluorescence cells (FACS) [2] | ratio of DsRed-Express and GFP production (efficiency of readthrough), plate readers [2] | ratio of gal-luc activity (readthrough efficiency) [3] | also measured
COc1ccc(C[C@H](N)C(=O)N[C@H]2[C@@H](O)[C@H](n3cnc4c(N(C)C)ncnc43)O[C@@H]2CO)cc1 [puromycin] | 20 |  |  |  | 
CN[C@@H]1[C@@H](O)[C@@H](O[C@@H]2[C@@H](O)[C@H](O[C@H]3O[C@H]([C@@H](C)O)[C@@H](O)[C@H](O)[C@H]3N)[C@@H](N)C[C@H]2N)OC[C@]1(C)O [G418 sulphate] |  | markedly increased | promoted translation readthrough | promoted readthrough efficiency; also recorded: markedly increased | population of dual-fluorescence cells (FACS) ([2]; listed as G418): significantly high population of dual-fluorescence cells; dual-fluorescence of cells ([2]; 293 cells, PTC construct, 5 days after treatment): generated dual-fluorescence
C[C@@H]1C[C@@H]([C@H](O)CC2CC(=O)NC(=O)C2)C(=O)[C@@H](C)C1 [cycloheximide] | 5 |  |  |  | 
O=C(O)c1cccc(-c2noc(-c3ccccc3F)n2)c1 [PTC124] |  |  |  |  | read-through efficiencies [4]: 2-10%
gentamicin |  | significantly high population of dual-fluorescence cells; also recorded: markedly increased | promoted translation readthrough | promoted readthrough efficiency | ratio of GFP and DsRedExpress fluorescence intensities (efficiency of readthrough) [5]: promoted the ratio of GFP and DsRedExpress fluorescence intensities; also recorded: promoted translation readthrough

— US20090311695A1, “Method” (priority 2008, published 2009)
